The source of these data is patent publication US20250228835A1, “PYRIDINYLOXYPYRIDINES AND RELATED COMPOUNDS AND THEIR USE IN TREATING MEDICAL CONDITIONS” (Rectify Pharmaceuticals, Inc., priority 2024, published 2025).

pEC50: −log10 of the molar value. Bounds are passed on as bounds.

For orientation: pEC50 means the EC50 on a negative log10 scale, so that one unit is a factor of ten.

The target of the assay is T1, ABCD2 WT (Homo sapiens, UniProt Q9UBJ2).
T1 construct: expressed in transfected cells
T1 sequence (Q9UBJ2 1-740): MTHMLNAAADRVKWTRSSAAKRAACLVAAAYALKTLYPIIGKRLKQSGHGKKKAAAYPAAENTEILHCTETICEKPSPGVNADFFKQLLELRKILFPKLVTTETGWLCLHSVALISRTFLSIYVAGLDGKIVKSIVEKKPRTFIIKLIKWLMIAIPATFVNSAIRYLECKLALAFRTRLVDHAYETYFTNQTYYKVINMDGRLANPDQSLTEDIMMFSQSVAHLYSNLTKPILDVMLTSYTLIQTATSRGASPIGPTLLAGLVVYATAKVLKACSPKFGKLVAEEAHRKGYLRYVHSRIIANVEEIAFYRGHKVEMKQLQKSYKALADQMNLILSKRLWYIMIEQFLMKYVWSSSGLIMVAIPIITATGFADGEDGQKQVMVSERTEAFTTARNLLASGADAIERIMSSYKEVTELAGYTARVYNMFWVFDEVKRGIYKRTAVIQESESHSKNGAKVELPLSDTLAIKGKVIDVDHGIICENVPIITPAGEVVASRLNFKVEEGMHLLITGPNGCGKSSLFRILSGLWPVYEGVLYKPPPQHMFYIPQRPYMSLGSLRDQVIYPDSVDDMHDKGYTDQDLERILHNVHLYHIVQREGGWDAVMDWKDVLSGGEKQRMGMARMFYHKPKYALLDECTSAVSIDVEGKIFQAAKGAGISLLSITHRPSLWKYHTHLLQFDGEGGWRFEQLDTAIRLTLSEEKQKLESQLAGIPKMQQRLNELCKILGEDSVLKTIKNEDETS
As to the kind of experiment: D2 correction dose-response assay: ABCD2 WT HiBit protein expression. In kind it is cell-based. The note with it: HEK-293/ABCD2 WT cells, 24 hours treatment, HiBit luminescence; class combines EC50 and Mean MaxAct (fold); read-out: ABCD2 WT EC50, Emax. The gist of the method: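 HEK-293 cells stably expressing HiBit-tagged human ABCD2 WT were treated with 11 doses (3-fold dilutions, top final 30 μM, 0.3% DMSO) for 24 h at 37 °C. Expression was measured by HiBit lytic luminescence after 1 h at 25 °C, giving EC50 and Emax.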
Consider `Cc1cc(C)c(Oc2nc(N3CC4CC3CN4C(=O)C3CC3)ccc2NS(C)(=O)=O)c(C)c1` (single isomer, unassigned) [Compound I-18], for which the negative logarithm of the EC50 (pEC50) was less than 4.60.
Regarding `Cc1cc(C)c(Oc2nc(N3CC4CC3CN4C(=O)C3CC3)ccc2NS(C)(=O)=O)c(C)c1` (single isomer, unassigned) [Compound I-19], the pEC50 is less than 4.60.
For `Cc1cc(C)c(Oc2nc(N3CCC(C#N)C3)ccc2NS(C)(=O)=O)c(C)c1` (single isomer, unassigned) [Compound I-261] the value was 5.00 to 6.00; for `Cc1cc(C)c(Oc2nc(N3CCC(C#N)C3)ccc2NS(C)(=O)=O)c(C)c1` (single isomer, unassigned) [Compound I-262], 5.00 to 6.00; for `Cc1cc(C)c(Oc2nc(N3CCN(C(=O)C4CC4)CC3)ccc2NS(C)(=O)=O)c(C2CC2)n1` [Compound I-20], 4.60 to 5.00.
For `Cc1cc(C)c(Oc2nc(N3CCn4c(C)nnc4C3)ccc2NS(C)(=O)=O)c(C)c1` [Compound I-21] the value was less than 4.60.
For `Cc1cc(C)c(Oc2nc(N3CC4CC(C3)N4C(=O)C3CC3)ccc2NS(C)(=O)=O)c(C)c1` [Compound I-22] the value was 5.00 to 6.00; for `Cc1cc(C)c(Oc2nc(N3CCN(C(=O)C4COC4)CC3)ccc2NS(C)(=O)=O)c(C)c1` [Compound I-23], 4.60 to 5.00.
With `Cc1cc(C)c(Oc2nc(N3CCN(C(=O)C4CCC4)CC3)ccc2NS(C)(=O)=O)c(C)c1` [Compound I-24], the negative logarithm of the EC50 (pEC50) is 5.00 to 6.00.
For `Cc1cc(C)c(Oc2nc(N3CCC4(CN(C(=O)C5CC5)C4)C3)ccc2NS(C)(=O)=O)c(C)c1` [Compound I-25] the value was 5.00 to 6.00; for `Cc1cc(C)c(Oc2nc(N3CCN(S(C)(=O)=O)CC3)ccc2NS(C)(=O)=O)c(C)c1` [Compound I-26], 5.00 to 6.00.
For `CNC(=O)N1CCN(c2ccc(NS(C)(=O)=O)c(Oc3c(C)cc(C)cc3C)n2)CC1` [Compound I-27] the value was less than 4.60; for `Cc1cc(C2CC2)nc(C)c1Oc1nc(N2CCN(C(=O)C3CC3)CC2)ccc1NS(C)(=O)=O` [Compound I-28], less than 4.60.
For `Cc1cc(C)c(Oc2nc(-c3cncc(Cl)c3)ccc2NS(=O)(=O)C(C)C)c(C)c1` [Compound I-29], the negative-log EC50 (pEC50) was less than 4.60.
For `Cc1cc(C)c(Oc2nc(N3CCn4c(cnc4C)C3)ccc2NS(C)(=O)=O)c(C)c1` [Compound I-30], the pEC50 was 5.00 to 6.00.
On to `Cc1cc(C)c(Oc2nc(N3CC4(CCN(C(=O)C5CC5)C4)C3)ccc2NS(C)(=O)=O)c(C)c1` [Compound I-31], for which the pEC50 is less than 4.60.
Consider `Cc1cc(C)c(Oc2nc(N3CCN(C(=O)OC(C)C)CC3)ccc2NS(C)(=O)=O)c(C)c1` [Compound I-32], for which the pEC50 was 5.00 to 6.00.
For `Cc1cc(C)c(Oc2nc(N3CCN(C(=O)N(C)C)CC3)ccc2NS(C)(=O)=O)c(C)c1` [Compound I-33], the pEC50 is 4.60 to 5.00.
The same measure for `Cc1cc(C)c(Oc2nc(N3CCN(C(=O)C(C)(C)C)CC3)ccc2NS(C)(=O)=O)c(C)c1` [Compound I-34]: less than 4.60; for `Cc1cc(C)c(Oc2nc(N3C4CC3CN(C(=O)C3CC3)C4)ccc2NS(C)(=O)=O)c(C)c1` [Compound I-35]: less than 4.60; for `Cc1cc(C)c(Oc2nc(-c3cnc(C#N)c(Cl)c3)ccc2NS(C)(=O)=O)c(C)c1` [Compound I-36]: greater than 6.00.
The same measure for `Cc1cc(C2CC2)nc(C)c1Oc1nc(-c2cncc(Cl)c2)ccc1NS(C)(=O)=O` [Compound I-37]: greater than 6.00.
The same measure for `Cc1cc(C)c(Oc2nc(N3CC4(CN(C(=O)C5CC5)C4)C3)ccc2NS(C)(=O)=O)c(C)c1` [Compound I-38]: less than 4.60.
As for `Cc1cc(C)c(Oc2nc(-c3cncc(C#N)c3)ccc2NS(C)(=O)=O)c(C)c1` [Compound I-39], the pEC50 was greater than 6.00.
For `Cc1cc(C)c(Oc2nc(-c3cncc(Cl)c3)ccc2NS(C)(=O)=O)c(C2CC2)n1` [Compound I-40] the value was greater than 6.00; for `Cc1cc(C)c(Oc2nc(-c3cncc(Cl)c3)ccc2NS(=O)(=O)C2COC2)c(C)c1` [Compound I-41], greater than 6.00.
The same measure for `Cc1cc(C)c(Oc2nc(-c3cncc(Cl)c3)ccc2NS(=O)(=O)C2CC2)c(C)n1` [Compound I-238]: 5.00 to 6.00; for `Cc1cc(C)c(Oc2nc(-c3ccnc(C#N)c3)ccc2NS(C)(=O)=O)c(C)n1` [Compound I-239]: greater than 6.00.
The same measure for `Cc1cc(C(F)(F)F)nc(C)c1Oc1nc(-c2cncc(C#N)c2)ccc1NS(C)(=O)=O` [Compound I-240]: greater than 6.00; for `Cc1cc(C)c(Oc2nc(-c3cccc(C#N)n3)ccc2NS(C)(=O)=O)c(C)n1` [Compound I-241]: 4.60 to 5.00; for `CCCS(=O)(=O)Nc1ccc(-c2cncc(C#N)c2)nc1Oc1c(C)cc(C)nc1C` [Compound I-242]: less than 4.60.
As to `Cc1cc(C)c(Oc2nc(-c3cncc(C#N)c3)ccc2NS(=O)(=O)C2CCC2)c(C)n1` [Compound I-243], the pEC50 was 4.60 to 5.00.
For `Cc1cc(C)c(Oc2nc(N3CCC(C#N)CC3)ccc2NS(C)(=O)=O)c(C)c1` [Compound I-244] the value was 4.60 to 5.00; for `Cc1cc(C)c(Oc2nc(-c3cncc(C#N)c3)ccc2S(=N)(=O)C2CC2)c(C)c1` (stereo not shown) [Compound I-245], greater than 6.00; for `Cc1cc(C)c(Oc2nc(-c3cncc(Cl)c3)ncc2NS(C)(=O)=O)c(C)n1` [Compound I-246], greater than 6.00.
In the case of `CCS(=O)(=O)Nc1ccc(-c2cncc(C#N)c2)nc1Oc1c(C)cc(C)nc1C` [Compound I-247], the negative logarithm of the EC50 (pEC50) was less than 4.60.
The same measure for `Cc1cc(C)c(Oc2nc(-c3cncc(C#N)c3)ccc2S(=N)(=O)C2CC2)c(C)n1` (stereo not shown) [Compound I-248]: less than 4.60.
Take `Cc1cc(C)c(Oc2nc(-c3cncc(C#N)c3)ccc2S(C)(=N)=O)c(C)n1` (stereo not shown) [Compound I-249]: the pEC50 is 5.00 to 6.00.
The same measure for `Cc1cnc(Oc2nc(-c3cncc(C#N)c3)ccc2NS(C)(=O)=O)c(C)c1` [Compound I-250]: less than 4.60; for `Cc1cc(C2CC2)nc(C)c1Oc1nc(-c2cncc(C#N)c2)ccc1S(C)(=N)=O` (stereo not shown) [Compound I-251]: less than 4.60; for `Cc1cc(C2CC2)nc(C)c1Oc1nc(-c2cncc(C#N)c2)ccc1NS(=O)(=O)C1CCC1` [Compound I-252]: 5.00 to 6.00.
The same measure for `Cc1cc(C)c(Oc2nc(-c3cncc(C#N)c3)ccc2NS(=O)(=O)C2CCC2)c(C)c1` [Compound I-253]: 5.00 to 6.00.
The same measure for `Cc1cc(C2CC2)nc(C)c1Oc1nc(-n2cnc(C#N)c2)ccc1NS(C)(=O)=O` [Compound I-254]: greater than 6.00; for `Cc1cc(C2CC2)nc(C)c1Oc1nc(-n2ccc(C#N)n2)ccc1NS(C)(=O)=O` [Compound I-255]: 5.00 to 6.00.
Turning to `Cc1cc(C2CC2)nc(C)c1Oc1nc(-n2cc(C#N)cn2)ccc1NS(C)(=O)=O` [Compound I-256], the pEC50 is 5.00 to 6.00.
As for `Cc1cc(C)c(Oc2nc(-n3ccc(C#N)n3)ccc2NS(C)(=O)=O)c(C)c1` [Compound I-257], the negative-log EC50 (pEC50) was 5.00 to 6.00.
For `Cc1cc(C)c(Oc2nc(-c3cncc(C#N)c3)ccc2S(N)(=O)=O)c(C)n1` [Compound I-258] the value was 4.60 to 5.00; for `Cc1cc(C)c(Oc2nc(-c3cncc(C#N)c3)cnc2NS(C)(=O)=O)c(C)n1` [Compound I-259], 5.00 to 6.00; for `Cc1cc(C)c(Oc2nc(-c3cncc(Cl)c3)cnc2NS(C)(=O)=O)c(C)n1` [Compound I-260], 5.00 to 6.00.
For `Cc1cc(C2CC2)nc(C)c1Oc1nc(-c2cncc(S(C)(=O)=O)c2)ccc1NS(C)(=O)=O` [Compound I-263] the value was 5.00 to 6.00; for `Cc1cc(C2CC2)nc(C)c1Oc1nc(-c2cncc(C#N)c2)ccc1NS(=O)(=O)C1CC1` [Compound I-264], less than 4.60.
Take `CNS(=O)(=O)c1ccc(-c2cncc(C#N)c2)nc1Oc1c(C)cc(C)nc1C` [Compound I-265]: the pEC50 was 5.00 to 6.00.
The same measure for `Cc1cc(C)c(Oc2nc(-c3cncc(C#N)c3)ccc2NS(=O)(=O)C2CC2)c(C)n1` [Compound I-266]: less than 4.60.
For `Cc1cc(C)c(Oc2nc(-c3cncc(C#N)c3)ccc2NS(=O)(=O)C2COC2)c(C)c1` [Compound I-267] the value was greater than 6.00; for `Cc1cc(C)c(Oc2nc(-c3cncc(C#N)c3)ccc2NS(C)(=O)=O)c(C2CC2)n1` [Compound I-268], less than 4.60; for `Cc1cc(C)c(Oc2nc(-c3ccc(C#N)nc3C)ccc2NS(C)(=O)=O)c(C)n1` [Compound I-269], 5.00 to 6.00.
The same measure for `Cc1cc(C)c(Oc2nc(-c3cc(C#N)cnc3C)ccc2NS(C)(=O)=O)c(C)n1` [Compound I-270]: 5.00 to 6.00; for `Cc1cc(C2CC2)cc(C)c1Oc1nc(-c2cncc(C#N)c2)ccc1NS(C)(=O)=O` [Compound I-271]: less than 4.60.
